Laboratory results from US20230391868A1, “COMPOSITIONS FOR AND METHODS OF TREATING CANCER” (The George Washington University, priority 2022, published 2023).

Columns and labels:
SM1 cells = assay: Phagocytosis kinetics by live cell imaging; type: cell-based, mouse
Description: After co-culture, slides were fixed in 4% paraformaldehyde. Slides were incubated overnight with primary anti-GFP antibody (Cell Signaling, 2956) at 4° C. Slides were incubated with goat anti-rabbit IgG conjugated to Alexa Fluor 488 (A11008, ThermoFisher). Slides were mounted using VECTASHIELD Antifade Mounting Medium with DAPI (H-1200-10, Vector Laboratories, Burlingame, CA). Slides were imaged using a Zeiss 710 confocal microscope. Phagocytosis was quantified using Fiji by Image J, and the percentage of phagocytosis was calculated by dividing the number of GFP+ macrophages containing red dye in their vesicles out of total GFP+ macrophages. Live imaging was performed following a similar protocol and images were acquired through ImageXpress Pico Automated Cell Imaging System (Molecular Devices, San Jose, CA, USA).
To assess the phagocytosis kinetics in those groups, live cell imaging was performed and phagocytosis was tracked for 4 hr. after the macrophages and SM1 cells were co-cultured for an hour. Images were acquired every four minutes thereafter.

SIRPα [1] = assay: Cell surface SIRPα expression by flow cytometry; type: cell-based, mouse; conditions: A31A7 macrophages and BMDMs; flow cytometry (FIG. 2C)
Description: Cell surface expression of CD47 in melanoma cells was evaluated using PE anti-mouse CD47 (clone miap301, […], Biolegend), PE anti-human CD47 (clone CC2C6, 323108, Biolegend), and their respective isotype controls (400508, 400113, respectively, Biolegend). SIRPα was evaluated using APC anti-mouse CD172a (SIRPα) antibody (clone P84, 144014, Biolegend) or APC anti-human CD172a/b (SIRPα/β) antibody (clone SE5A5, 323810, Biolegend) and their respective isotype controls (400411, Biolegend).

B16F10 melanoma tumors = assay: B16F10 melanoma tumor growth in vivo; design: species or system mouse; conditions: B16F10-bearing mice; legend: NextA 25 mg/kg IP, αCD47 50 μg IT (FIG. 10A)
Source text: The antitumor effects of the combination therapy were also observed in the B16F10 melanoma model following the same experimental protocol as in the SM1 model. […] Regarding the immunophenotyping of tumors, there were no significant differences in the immune cell populations in the B16 TME by flow cytometry (FIG. 10B-FIG. 10E). Thus, the discrepancies between the SM1 and B16F10 tumor models could be explained by the scarce infiltration of immune cells in the TME of B16F10 tumors compared to SM1 tumors (5% versus 15%, respectively, FIG. 10F) as well as the poor immunogenicity of B16 tumors.

SIRPα [2] = assay: SIRPα gene expression in mouse macrophages by qRT-PCR; type: cell-based; conditions: A31A7 macrophages and BMDMs, unpolarized and polarized, qRT-PCR (FIG. 2A)
Description: Bone marrow-derived macrophages were isolated from the femurs and tibias of wild-type C57/Bl6, HDAC6 knockout (C57BL/6J-Hdac6em2Lutzy/J, 029318, Jackson Laboratory), or UBC-GFP (C57BL/6-Tg(UBC-GFP)30Scha/J, 004353, Jackson Laboratory). Isolated bone marrow cells were cultured in RPMI 1640 complete medium with 10% FBS, 1% NEAA, and 1% penicillin-streptomycin in 5% CO2 at 37° C. Medium was supplemented with murine recombinant M-CSF (20 ng/mL, 576404, Biolegend) to differentiate monocytes into macrophages. Three days after bone marrow isolation, undifferentiated and floating cells were washed with PBS and replaced with fresh RPMI media. A3.1A7 cells and BMDMs were pretreated with 5 μM of HDAC6 inhibitor NextA or vehicle prior to adding polarizing cytokines. […]
qRT-PCR: Total RNA was extracted from cells using the Trizol reagent according to manufacturer's instructions (ThermoFisher Scientific, 15596018). […] RNA was quantified using a NanoDrop One Spectrophotometer (ThermoFisher Scientific). […] Target mRNA was quantified using MyIQ single-color real-time PCR detection system from Bio-Rad (Bio-Rad, Hercules, CA) and iQ SYBR green Supermix (Bio-Rad, 1708882). […] Quantification is expressed in arbitrary units and target mRNA levels were normalized to R-actin expression.

CCCCN(Cc1ccc(C(=O)NO)cc1)C(=O)Nc1ccccc1 [NextA, Nexturastat A]
maximum phagocytosis reached (SM1 cells; M1 NextA treated macrophages, IgG control group (FIG. 4L)): approximately 20% | phagocytosis rate over time (SM1 cells; M1 macrophages with SM1 cells, tracked for 4 hr (FIG. 4L)): steady increase in phagocytosis over time | SIRPα expression on the cell surface (SIRPα [1]): significantly decreased | B16 melanoma tumor growth (B16F10 melanoma tumors): did not decrease | Sirpa expression at the transcriptional level (SIRPα [2]): significantly downregulated | Sirpa expression at the transcriptional level (SIRPα [2]; listed as Nexturastat A): downregulated
